The nature of data set [1]: CD spectroscopy, α-helicity. The note with it: 5 × 10^−5 M peptide in H2O, 25 °C, 1 mm cuvette, 185-260 nm. The data set is classed as physicochemical. The protocol:
The detection wavelengths of the peptides were 214 and 254 nm. Solvent A: H2O (containing 0.1% TFA) and solvent B: acetonitrile (containing 0.1% TFA) were used as solvents in linear gradient mixtures. Peptide purification was performed by semi‐preparative HPLC using an XBridge Prep C18 column (19 × 250 mm, 10 µm particle size, flow rate of 20 mL min^−1). Solvents A and B were the same as those in the peptide analysis procedure. The peptides were dissolved in H2O to a final concentration of 5 × 10^−5 M. The purified peptide was detected using a mass spectrometer (6410 Triple Quad LC/MS, Agilent, USA) (Table S2, Supporting Information). The solvent was 80% methanol and 20% H2O (containing 0.1% formic acid). The CD spectra were obtained with a 1 mm quartz cuvette on a BRIGHT TIME Chirasca (Applied Photophysics, Britain) spectropolarimeter with a scan wavelength between 185–260 nm at 25 °C. The helicity of each peptide was calculated by the literature equation.^[ [24] ^]

A further data set has as its target T1, Nur77-PPARγ complex (Homo sapiens, UniProt P22736).
T1 construct: expressed in transfected cells; host or cells: HEK293T
Kind of data set: NanoBiT assay of Nur77-PPARγ complex formation in HEK293T cells. Type of data set: cell-based. Conditions: 1 × 10^−5 M peptide, 1 h, n = 3. The protocol:
HEK293T cells were seeded in a poly‐d‐lysine‐coated black 96‐well cell culture plate at 10 000 cells per well in 100 µL culture medium. The next day, the master mix of 100 ng receptor construct containing the PPARγ‐LargeBit and SmallBit‐Nur77 plasmids (w/w, 50 ng:50 ng) was diluted in Opti‐MEM Medium (Gibco, 11058‐021), then P3000 Reagent was added. Meanwhile, 0.15 µL Lipofectamine 3000 reagent (ThermoFisher, L3000015) was added to 5 µL Opti‐MEM Medium. Subsequently, diluted DNA was added to Lipofectamine 3000 reagent (V/V, 1:1) and incubated for 15 min at room temperature. A mixture containing the above plasmids and Lipofectamine 3000 was prepared and added to each well. After 24 h, the cells were treated with 1 × 10^−5 M peptides (TAT, T‐CY14, S‐CY14, and ST‐CY14) or variable concentrations of ST‐CY‐14 (0.1/0.2/0.5/1/2/5/10/20/40 × 10^−6 M) for 1 h. The culture medium was replaced with 90 µL Tyrode's solution (Solarbio, T1420). Then, 10 µL furimazine (5 × 10^−5 M) was added to each well and the luminescence signal was measured every 86 s for 1 h at 37 °C.

Data set [2] relates to MCF7 cells. Kind of data set: Transwell cell migration analysis. The note with it: MCF7, 12 h. Type of data set: cell-based, human. The protocol:
(§1) 600 µL DMEM complete medium was added to the lower chamber of the Transwell. Next, 2×10^4 cells in 100 µL DMEM medium, containing 1, 2, 5, 10, or 2 × 10^−5 M peptides, were added to the upper chamber of the Transwell. The cells were incubated for 12 h at 37 °C and 5% CO2. After the incubation period, the medium was discarded, and the chamber was washed with PBS. The cells were then fixed with 4% paraformaldehyde for 20 min. The upper chamber was subsequently soaked in crystal violet for 20 min, washed with PBS, and observed under a microscope for analysis.

For data set [3], the system named is MCF7 cells. Kind of data set: Western blot of Nur77, CD36 and FABP4. Type of data set: cell-based, human. The protocol:
(§2) MCF7 and MDA‐MB‐231 cells were treated with various concentrations of peptide. The cells were then collected and lysed in NP40 lysis buffer. Total protein was quantified using a BCA assay kit (Beyotime, P0010S). The proteins were separated by SDS‐PAGE and transferred onto a PVDF membrane. The PVDF membrane was blocked in TBST containing 5% non‐fat milk, and then incubated with primary antibodies overnight at 4 °C. Subsequently, membranes were incubated with horseradish peroxidase‐conjugated antirabbit or antimouse IgG secondary antibody for 1 h at room temperature. The membranes were analyzed by a Tanon‐5200 Multi Gel Imaging Analysis System (Tanon) and quantified by ImageJ software.
(In western blotting, separated proteins are transferred to a membrane and probed.)

The subject of data set [4] is MDA-MB-231 cells. Kind of data set: Transwell cell migration analysis. The note with it: MDA-MB-231, 12 h. Type of data set: cell-based. The protocol:
as §1

The subject of data set [5] is MCF7 cells. Kind of data set: Scratch (wound-healing) assay. Type of data set: cell-based, human. The note with it: MCF7, 12 h. The protocol: (§3) MCF7 and MDA‐MB‐231 cells were seeded in 6‐well plates and cultured overnight. Once the cell density reached 90%, a line was scratched along the center of the 6‐well plate and images were taken randomly in the scratch domain under a microscope. The cells in each well were then treated with peptides of varying concentrations for 12 h, after which images were taken again in the scratch domain. The formula used to calculate the scratch healing rate was as follows: Scratch healing rate (%) = [(Scratch area at 0 h – Scratch area at 12 h) […] Scratch area at 0 h] × 100%.

The test system of data set [6] is MDA-MB-231 cells. Nature of the data set: Scratch (wound-healing) assay. Type of data set: cell-based. The note with it: MDA-MB-231, 12 h. The protocol:
as §3

For the next data set, the system named is α-chymotrypsin. Nature of the data set: Protease stability in α-chymotrypsin solution. Conditions: α-chymotrypsin solution; α-chymotrypsin 0.5 ng µL^−1 in PBS (5 × 10^−2 M, 2 × 10^−3 M CaCl2, pH 7.4); 100 µL of 1 × 10^−3 M peptide + 1 mL enzyme; room temperature; 5-480 min; quenched with 1 M HCl; analytical HPLC at 214 nm. Type of data set: in vitro ADME. The protocol:
The peptides were dissolved in PBS (pH 7.4) to a final concentration of 1 × 10^−3 M. α‐Chymotrypsin was dissolved in PBS (5 × 10^−2 M, containing 2 × 10^−3 M CaCl2, pH 7.4) to a final concentration of 0.5 ng µL^−1. Subsequently, 100 µL peptides were incubated with α‐chymotrypsin (1 mL) at room temperature, and 100 µL of the digestion mixture was collected at different times (5/10/20/30/60/120/240/480 min) and added to a centrifuge tube containing 20 µL of 1 M HCl to quench the enzymatic reaction. The solution of α‐Chymotrypsin peptide fragments was monitored by analytical HPLC to determine the fraction of protease degradation at 214 nm.

For data set [7], the system named is MDA-MB-231 cells. Nature of the data set: Western blot of Nur77, CD36 and FABP4. The data set is classed as cell-based. The protocol:
as §2

The nature of a further data set: Solubility test in PBS. The data set is classed as physicochemical. Conditions: 1 mg in 50 µL, gradient diluted from 20 to 0.078125 mg mL^−1, OD at 600 nm (turbidity), plate reader. The protocol:
Mix 1 mg ST‐CY14 or Csn‐B (Shanghai Sunny Biotech) in 50 µL PBS buffer, and then transfer 40 µL the suspension to a 96‐well plate. The suspension was gradient diluted from 20 to 0. 07 8125 mg mL^−1. OD values were measured at 600 nm on a Cytation 5 (Biotek, USA) plate reader. PBS was set as a blank control.

Molecules are shown by their SMILES. Where a SMILES comes first, the peptide text is derived from it. Bridges are numbered along the chain shown (N, C = ends). [ ]: non-standard residue; d: D form. S5 = C=CCCC[C@](C)(N)C(=O)O

T1 sequence (P22736 whole entry, one chain of several): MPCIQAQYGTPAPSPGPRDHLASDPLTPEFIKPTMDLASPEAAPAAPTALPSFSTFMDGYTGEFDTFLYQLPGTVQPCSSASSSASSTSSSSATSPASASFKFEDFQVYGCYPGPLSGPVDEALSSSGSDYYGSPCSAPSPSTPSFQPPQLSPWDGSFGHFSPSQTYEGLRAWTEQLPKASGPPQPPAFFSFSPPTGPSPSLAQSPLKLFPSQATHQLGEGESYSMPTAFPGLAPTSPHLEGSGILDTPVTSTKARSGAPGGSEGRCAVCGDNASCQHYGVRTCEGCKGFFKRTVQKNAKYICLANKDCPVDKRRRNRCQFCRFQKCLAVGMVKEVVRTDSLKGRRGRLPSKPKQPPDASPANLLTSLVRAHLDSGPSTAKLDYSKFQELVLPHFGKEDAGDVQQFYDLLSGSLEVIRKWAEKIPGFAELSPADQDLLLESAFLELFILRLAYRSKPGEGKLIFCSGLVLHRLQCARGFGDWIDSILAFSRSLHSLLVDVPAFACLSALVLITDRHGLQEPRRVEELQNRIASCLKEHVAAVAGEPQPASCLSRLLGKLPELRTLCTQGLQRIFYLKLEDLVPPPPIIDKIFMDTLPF

With `C[C@@H](O)[C@@H]1NC(=O)[C@H](CCCNC(=N)N)NC(=O)[C@H](CCCNC(=N)N)NC(=O)[C@@](C)(NC(=O)[C@H](Cc2ccccc2)NC(=O)CNC(=O)[C@H](CCCCN)NC(=O)[C@H](CS)NC(=O)CNC(=O)[C@H](CCC(=O)O)NC(=O)[C@@H](N)CS)CCCC=CCCC[C@@](C)(C(=O)N[C@@H](CCCNC(=N)N)C(=O)N[C@@H](Cc2ccc(O)cc2)C(N)=O)NC1=O` [S-CY14] (H-CEGCKGF[S5]RRT[S5]RY-NH2; staple 8-12), the “α-Helicity (CD)” value in data set [1] stood at 15.6%. Besides, on Nur77-PPARγ complex, the “Effect on NanoBiT luminescence (Nur77-PPARγ complex)” value was “minimal effects on the luminescence”.

On to `N=C(N)NCCC[C@H](NC(=O)[C@H](CCCNC(=N)N)NC(=O)[C@H](CCCNC(=N)N)NC(=O)[C@H](CCC(N)=O)NC(=O)[C@H](CCCNC(=N)N)NC(=O)[C@H](CCCNC(=N)N)NC(=O)[C@H](CCCCN)NC(=O)[C@H](CCCCN)NC(=O)[C@H](CCCNC(=N)N)NC(=O)CNC(=O)[C@@H](N)Cc1ccc(O)cc1)C(N)=O` [TAT, reference compound], for which the “Effect on NanoBiT luminescence (Nur77-PPARγ complex)” value on Nur77-PPARγ complex is on record as “minimal effects on the luminescence”.

One may read the half-life as the time needed for the level to fall by half in the phase considered. On to `CC[C@H](C)[C@H](NC(=O)[C@@H](NC(=O)[C@H](CCCNC(=N)N)NC(=O)[C@H](CCCNC(=N)N)NC(=O)[C@H](Cc1ccccc1)NC(=O)[C@H](Cc1ccccc1)NC(=O)CNC(=O)[C@H](CCCCN)NC(=O)[C@H](CS)NC(=O)CNC(=O)[C@H](CCC(=O)O)NC(=O)[C@@H](N)CS)[C@@H](C)O)C(=O)N[C@@H](CCCNC(=N)N)C(=O)N[C@@H](Cc1ccc(O)cc1)C(=O)N[C@@H](Cc1ccc(O)cc1)C(=O)NCC(=O)N[C@@H](CCCNC(=N)N)C(=O)N[C@@H](CCCCN)C(=O)N[C@@H](CCCCN)C(=O)N[C@@H](CCCNC(=N)N)C(=O)N[C@@H](CCCNC(=N)N)C(=O)N[C@@H](CCC(N)=O)C(=O)N[C@@H](CCCNC(=N)N)C(=O)N[C@@H](CCCNC(=N)N)C(=O)N[C@@H](CCCNC(=N)N)C(N)=O` [T-CY14] (H-CEGCKGFFRRTIRYYGRKKRRQRRR-NH2), for which the Transwell transmigration entry in the data set with MCF7 cells [2] and with MDA-MB-231 cells [4] was “inhibited the transmigration” in each case. In addition, the “CD36 and FABP4 protein expression (immunoblot)” value with MCF7 cells [3] is recorded as “had some effect, but its efficacy was much lower”; in the data set on MDA-MB-231 cells [7], “had some effect, but its efficacy was much lower”. Besides, the “Nur77 protein expression (immunoblot)” value in the data set with MCF7 cells [3] and in the data set on MDA-MB-231 cells [7] was “increase in Nur77 expression” throughout. In addition, the Scratch healing entry in the data set on MCF7 cells [5] and in the data set on MDA-MB-231 cells [6] was “suppressed the scratch healing” each time. In addition, in the data set on α-chymotrypsin, the half-life at 90.9 µM is 4.94 min.

Regarding `CCCCCCCC(=O)c1c(O)cc(O)cc1CC(=O)OCC` [Csn-B, cytosporone B, reference compound], in the data set “Solubility test in PBS”, the “Solubility in PBS” value is “≈ 1 mg mL^−1”.

Values taken from article PMC11234460, “In Silico Discovery of Stapled Peptide Inhibitor Targeting the Nur77‐PPARγ Interaction and Its Anti‐Breast‐Cancer Efficacy” (Advanced Science, 2024).
